ChEMBL document CHEMBL1201862, “PubChem BioAssay data set” (2004)
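48-hour exposure; five concentrations; linearly interpolated endpoints. The concentration for 50% growth inhibition is given as GI50.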 The source made the active and inactive calls. Cut-off read from the data, not from the text of the source: active = GI50 up to about 1.1 µM and inactive = higher.

What was measured:
Assay in all cases: NCI tumour cell line growth inhibition, 48 h
[1] = system: TK-10
[2] = system: COLO 205
[3] = system: OVCAR-8
[4] = system: A549
[5] = system: SK-MEL-2
[6] = system: EKVX
[7] = system: K562
[8] = system: OVCAR-4
[9] = system: MDA-MB-435
[10] = system: SK-MEL-5
[11] = system: MDA-MB-231
[12] = system: RXF 393
[13] = system: OVCAR-3
[14] = system: 786-0
[15] = system: Hs-578T
[16] = system: CAKI-1
[17] = system: SN12C
[18] = system: Malme-3M
[19] = system: T47D
[20] = system: BT-549

SMILES | GI50 [1] | GI50 [2] | GI50 [3] | GI50 [4] | GI50 [5] | GI50 [6] | GI50 [7] | GI50 [8] | GI50 [9] | GI50 [10] | GI50 [11] | GI50 [12] | GI50 [13] | GI50 [14] | GI50 [15] | GI50 [16] | GI50 [17] | GI50 [18] | GI50 [19] | GI50 [20]
O=C1Nc2ccccc2/C1=N/NC(=S)Nc1cccc(Cl)c1 | 31.4 µM (inactive) | 8.93 µM (inactive) | 5.04 µM (inactive) | 7.08 µM (inactive) | 22 µM (inactive) | 10.3 µM (inactive) | 4.7 µM (inactive) | 4.33 µM (inactive) | 17.7 µM (inactive) | 4.57 µM (inactive) | 11.1 µM (inactive) | 7.6 µM (inactive) | 2.68 µM (inactive) | 5.12 µM (inactive) | 33.4 µM (inactive) | 8.3 µM (inactive) | 14.4 µM (inactive) | 19.9 µM (inactive) | 48.9 µM (inactive) | 
Cn1nc(/C=C\C(=O)N2CC(CCl)c3c2cc(N)c2ccccc32)cc1/C=C/C(=O)N1CC(CCl)c2c1cc(N)c1ccccc21 (stereo not drawn) | < 0.01 µM (active) | < 0.01 µM (active) | < 0.01 µM (active) | < 0.01 µM (active) | < 0.01 µM (active) | 0.0215 µM (active) | < 0.01 µM (active) | < 0.01 µM (active) | < 0.01 µM (active) | < 0.01 µM (active) | < 0.01 µM (active) | < 0.01 µM (active) | < 0.01 µM (active) | < 0.01 µM (active) |  | < 0.01 µM (active) | < 0.01 µM (active) | < 0.01 µM (active) | < 0.01 µM (active) | < 0.01 µM (active)
COC(=O)C1CCC(=O)N1CN(C(C)=O)c1ccccc1Cl (stereo not drawn) | > 100 µM (inactive) | > 100 µM (inactive) | > 100 µM (inactive) | > 100 µM (inactive) | > 100 µM (inactive) | > 100 µM (inactive) | > 10 µM (inactive) | > 100 µM (inactive) | > 100 µM (inactive) | > 100 µM (inactive) | > 100 µM (inactive) | > 100 µM (inactive) | > 100 µM (inactive) | > 100 µM (inactive) | > 100 µM (inactive) | > 100 µM (inactive) | > 100 µM (inactive) | > 100 µM (inactive) | > 100 µM (inactive) | 
[N-]=[N+]=Nc1c([N+](=O)[O-])c(=O)n(-c2ccccc2)c2ccccc12 | 14.2 µM (inactive) | 21.1 µM (inactive) | 20.1 µM (inactive) | 38.7 µM (inactive) | 17.9 µM (inactive) | 16.7 µM (inactive) | 22.5 µM (inactive) | 18.3 µM (inactive) | 21 µM (inactive) | 24.2 µM (inactive) | 17.8 µM (inactive) | 20 µM (inactive) | 4.5 µM (inactive) | 19.5 µM (inactive) | 20 µM (inactive) | 21.5 µM (inactive) | 23.4 µM (inactive) | 17 µM (inactive) | 29.1 µM (inactive) | 
O=C1C(/C=C/c2ccc(Cl)cc2)=NNC2N1N=C1NC(=O)C3(NN12)c1ccccc1-c1ccccc13 (stereo not drawn) | > 100 µM (inactive) | > 100 µM (inactive) | > 100 µM (inactive) | > 100 µM (inactive) | > 100 µM (inactive) | 38.5 µM (inactive) | 35.4 µM (inactive) | > 100 µM (inactive) | 60.8 µM (inactive) | > 100 µM (inactive) | > 100 µM (inactive) | > 100 µM (inactive) | > 100 µM (inactive) | > 100 µM (inactive) | 65.6 µM (inactive) | > 100 µM (inactive) | > 100 µM (inactive) | > 100 µM (inactive) |  | > 100 µM (inactive)
C=CCOC(=O)CC[C@H](NC(=O)[C@@H](CCC(F)(F)F)Cc1ccc(O)cc1)C(=O)OCC=C |  | 21.3 µM (inactive) | > 100 µM (inactive) | > 100 µM (inactive) |  | 27.3 µM (inactive) | 41.5 µM (inactive) | 65.2 µM (inactive) | 25.4 µM (inactive) | 18.5 µM (inactive) |  | > 100 µM (inactive) |  | 86.9 µM (inactive) | 36.7 µM (inactive) | > 100 µM (inactive) | 45.4 µM (inactive) | 20.2 µM (inactive) | 20.6 µM (inactive) | > 100 µM (inactive)
O=C(COc1ccc(OCC(=O)N2C(=O)CC(=O)N(c3ccccc3)C2=S)cc1)N1C(=O)CC(=O)N(c2ccccc2)C1=S | > 100 µM (inactive) | 61.2 µM (inactive) |  | 40.4 µM (inactive) | 43.4 µM (inactive) | > 100 µM (inactive) | 52.1 µM (inactive) | 44.4 µM (inactive) | 76 µM (inactive) |  | 46.8 µM (inactive) | 25.5 µM (inactive) |  | 56.1 µM (inactive) |  | 0.851 µM (active) | > 100 µM (inactive) | > 100 µM (inactive) |  | 78.7 µM (inactive)
O=C(CNc1ccccn1)Nn1cnc2ccc(S(=O)(=O)Nc3ccccn3)cc2c1=O | > 100 µM (inactive) | > 100 µM (inactive) | > 100 µM (inactive) | > 100 µM (inactive) | > 100 µM (inactive) | > 100 µM (inactive) | > 100 µM (inactive) | > 100 µM (inactive) | > 100 µM (inactive) |  | > 100 µM (inactive) |  | > 100 µM (inactive) | > 100 µM (inactive) | > 100 µM (inactive) | > 100 µM (inactive) | > 100 µM (inactive) | > 100 µM (inactive) |  | > 100 µM (inactive)
CCOCCOC(=O)C1CCC(=O)N1CN(C(C)=O)c1cc(OC)ccc1OC (stereo not drawn) | > 100 µM (inactive) | > 100 µM (inactive) | > 100 µM (inactive) | > 100 µM (inactive) | > 100 µM (inactive) | > 100 µM (inactive) | > 100 µM (inactive) | > 100 µM (inactive) | > 100 µM (inactive) | > 100 µM (inactive) | > 100 µM (inactive) | > 100 µM (inactive) | > 100 µM (inactive) | > 100 µM (inactive) | > 100 µM (inactive) | > 100 µM (inactive) | > 100 µM (inactive) | > 100 µM (inactive) | > 100 µM (inactive) | 
C=CCc1cccc2cc(C(=O)Nc3nc(C45CC6CC(CC(C6)C4)C5)cs3)c(=O)oc12 | 30.8 µM (inactive) | 21.4 µM (inactive) | 85.9 µM (inactive) | 49.9 µM (inactive) |  | 25.1 µM (inactive) | 27.4 µM (inactive) | 21 µM (inactive) | 51.5 µM (inactive) | 40.8 µM (inactive) | 23.4 µM (inactive) | 6.08 µM (inactive) | 24.4 µM (inactive) | 23.2 µM (inactive) | 16.4 µM (inactive) | 20.6 µM (inactive) | 45.2 µM (inactive) | 46 µM (inactive) |  | 70 µM (inactive)
C=Cc1ccccc1C1(O)C=CC(OC)(OC)C=C1 | 3.25 µM (inactive) | 10.8 µM (inactive) | 2.06 µM (inactive) | 17.3 µM (inactive) | 17.3 µM (inactive) | 14.7 µM (inactive) | 7.6 µM (inactive) | 17.8 µM (inactive) | 4.36 µM (inactive) | 13.8 µM (inactive) | 10.5 µM (inactive) | 4.97 µM (inactive) | 3.05 µM (inactive) | 5.04 µM (inactive) | 21.4 µM (inactive) | 5.68 µM (inactive) | 8.24 µM (inactive) | 13.5 µM (inactive) | 22.2 µM (inactive) | 
COc1ccc(-c2nc3ncccn3c2-c2ccc(SC)cc2)cc1 |  | 1.33 µM (inactive) | 3.92 µM (inactive) | 2.88 µM (inactive) | 1.32 µM (inactive) |  | 0.869 µM (active) | 8.69 µM (inactive) | 0.213 µM (active) | 0.953 µM (active) | 4.24 µM (inactive) |  | 0.44 µM (active) | 4.59 µM (inactive) | 1.74 µM (inactive) | 0.74 µM (active) | 3.92 µM (inactive) |  |  | 1.45 µM (inactive)
COc1cccc2c1C(=O)c1c(O)c3c(c(O)c1C2=O)C[C@@](O)(C(C)=O)C[C@@H]3OC1OC(C)C(O)C(N)C1Br (stereo partly drawn) | 0.158 µM (active) | 0.418 µM (active) | 0.0557 µM (active) | 0.0202 µM (active) | 0.267 µM (active) | 0.805 µM (active) | 0.0495 µM (active) | 0.185 µM (active) | 0.22 µM (active) | 0.0689 µM (active) | 0.233 µM (active) | 0.213 µM (active) | 0.136 µM (active) | 0.0404 µM (active) |  | 0.0139 µM (active) | 0.0281 µM (active) | 0.0769 µM (active) | 0.0585 µM (active) | 0.269 µM (active)
NNC(=O)c1c(-c2cccnc2)cnc2ccccc12 | > 100 µM (inactive) | > 100 µM (inactive) | > 100 µM (inactive) | > 100 µM (inactive) | > 100 µM (inactive) | > 100 µM (inactive) | > 100 µM (inactive) | > 100 µM (inactive) |  | > 100 µM (inactive) |  | > 100 µM (inactive) | > 100 µM (inactive) | > 100 µM (inactive) |  | > 100 µM (inactive) | > 100 µM (inactive) | > 100 µM (inactive) |  | > 100 µM (inactive)
Cc1[nH]n(-c2nc3c(c(=O)[nH]2)CCCC3)c(=O)c1CCO | > 100 µM (inactive) | > 100 µM (inactive) | > 100 µM (inactive) | > 100 µM (inactive) | > 100 µM (inactive) | > 100 µM (inactive) | > 100 µM (inactive) | > 100 µM (inactive) | > 100 µM (inactive) | > 100 µM (inactive) | > 100 µM (inactive) | > 100 µM (inactive) | > 100 µM (inactive) | > 100 µM (inactive) | > 100 µM (inactive) | 60 µM (inactive) | > 100 µM (inactive) | > 100 µM (inactive) | > 100 µM (inactive) | 
